The results in this text go back to US10040802B2, “Thienopyrazine inhibitors of IRAK4 activity” (MERCK SHARP & DOHME CORP., priority 2015, dated 2018).

The structures appear in SMILES notation. Where a name gives a salt, the structure may show the parent alone.

Chain of GST tagged IRAK4 (Q9NWZ3 whole entry): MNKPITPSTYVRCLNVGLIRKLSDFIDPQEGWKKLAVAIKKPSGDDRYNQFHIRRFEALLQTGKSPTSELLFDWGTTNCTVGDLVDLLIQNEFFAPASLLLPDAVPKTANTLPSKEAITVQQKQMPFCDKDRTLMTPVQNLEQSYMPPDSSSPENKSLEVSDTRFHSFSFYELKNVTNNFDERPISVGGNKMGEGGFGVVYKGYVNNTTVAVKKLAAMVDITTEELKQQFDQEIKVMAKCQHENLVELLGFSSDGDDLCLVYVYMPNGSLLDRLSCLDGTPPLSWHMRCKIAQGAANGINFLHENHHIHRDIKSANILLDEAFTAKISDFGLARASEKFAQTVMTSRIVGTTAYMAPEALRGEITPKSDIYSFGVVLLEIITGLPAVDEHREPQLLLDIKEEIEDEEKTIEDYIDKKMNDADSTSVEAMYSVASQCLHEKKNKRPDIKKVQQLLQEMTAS

The assay addresses GST tagged IRAK4 (Homo sapiens (Human), UniProt Q9NWZ3). The experiment in a line: IRAK4 Kinase Assay (IMAP fluorescence polarization). Type of assay: biochemical. Particulars: 0.5 nM GST tagged IRAK4, 100 μM ATP, 30 minutes at 25° C. On the procedure:
The kinase activity of IRAK4 is determined by its ability to catalyze the phosphorylation of a fluorescent polypeptide substrate. The extent of phosphorylation is measured using the IMAP technology (Molecular Devices) where the phosphorylated fluorescent substrate binds to the large M(III)-based nanoparticles which reduces the rotational speed of the substrate and thus increases its fluorescent polarization (FP).
20 μL reaction mixture contains 10 mM TriHCl, pH 7.2, 0.5 nM GST tagged IRAK4 (SignalChem), 100 nM fluorescent peptide substrate (RP7030, Molecular Devices), 100 μM ATP, 1 mM DDT, 1 mM MgCl2, and 0.01% Tween 20. The reaction is initiated by the addition of ATP. After incubation for 30 minutes at 25° C., 60 μL of Progressive IMAP Reagent (Molecular Devices) is added to stop the reaction. Change in RP7030's FP is determined by a FP reader (Analyst HT, LJL BioSystems).
Broadly, the IC50 is the midpoint of a concentration-inhibition curve. A lower IC50 goes with inhibition by little substance. `Cn1cc(NC(=O)c2csc3ncc(N[C@@H]4CCCC(F)(F)[C@@H]4N)nc23)c(Br)n1` [Example 29, 2-{[(1R,2R)-2-amino-3,3-difluorocyclohexyl]amino}-N-(3-(bromo-1-methyl-1H-pyrazol-4-yl)thieno[2,3-b]pyrazine-7-carboxamide trifluoroacetate]: the IC50 came to 107 nM.
Consider `Cn1cc(NC(=O)c2csc3ncc(N4C[C@@H]5CC[C@H]4CN5)nc23)c(Cl)n1` (single isomer, unassigned) [Example 16, N-(3-chloro-1-methyl-1H-pyrazol-4-yl)-2-[(1S,4S)- or (1R,4R)-2,5-diazabicyclo[2.2.2]oct-2-yl]thieno[2,3-b] pyrazine-7-carboxamide trifluoroacetate], for which the midpoint of inhibition, the IC50, lay at 73 nM.
The result for `Cn1cc(NC(=O)c2csc3ncc(N[C@H]4CCCCNC4)nc23)c(C(F)F)n1` (single isomer, unassigned) [Example 34, 2-[(3S)- or (3R)-azepan-3-ylamino]-N-[3-(difluoromethyl)-1-methyl-1H-pyrazol-4-yl]thieno[2,3-b] pyrazine-7-carboxamide trifluoroacetate] reads 2 nM.
For the molecule `O=C(Nc1cscc1C(F)F)c1csc2ncc(N3C[C@@H]4CC[C@H]3CN4)nc12` (single isomer, unassigned) [Example 58, 2-[(1S,4S)- or (1R,4R)-2,5-diazabicyclo [2.2.2]oct-2-yl]-N-[4-(difluoromethyl)thiophen-3-yl] thieno[2,3-b] pyrazine-7-carboxamide trifluoroacetate], the IC50 is 285 nM.
`N#Cc1cscc1NC(=O)c1csc2ncc(N3C[C@H]4CC[C@@H]3CN4)nc12` (single isomer, unassigned) [Example 66, N-(4-cyanothiophen-3-yl)-2-[(1S,4S)- or (1R,4R)-2,5-diazabicylo[2.2.2]oct-2-yl]thieno[2,3-b] pyrazine-7-carboxamide formate] registered an IC50 of 220 nM.
`O=C(Nc1cscc1C(F)F)c1csc2ncc(N3CCCNCC3)nc12` [Example 47, 2-(1,4-diazepan-1-yl)-N-[4-(difluoromethyl)thiophen-3-yl] thieno[2,3-b] pyrazine-7-carboxamide trifluoroacetate]: half-maximal inhibition (IC50) was put at 38 nM. Compared with the last molecule, the IC50 is about 5.8-fold lower.
The result for `N[C@H]1CCCC[C@H]1Nc1cnc2scc(C(=O)Nc3ccsc3C(F)(F)F)c2n1` [Example 76, 2-{[(1R,2S)-2-amino-cyclohexyl]amino}-N-(2-(trifluoromethyl)thiophen-3-yl] thieno[2,3-b] pyrazine-7-carboxamide trifluoroacetate] reads 12 nM; that for `N#Cc1ccccc1NC(=O)c1csc2ncc(N[C@H]3CCCCNC3)nc12` (single isomer, unassigned) [Example 93, 2-[(3S)- or (3R)-azepan-3-ylamino]-N-(2-cyanophenyl)-thieno[2,3-b]-pyrazine-7-carboxamide trifluoroacetate], 4 nM; that for `O=C(Nc1ccsc1Br)c1csc2ncc(N3CCCNCC3)nc12` [Example 51, N-(2-bromothiophen-3-yl)-2-(1,4-diazepan-1-yl)thieno[2,3-b] pyrazine-7-carboxamide trifluoroacetate], 1160 nM.
As to `Cn1cc(NC(=O)c2csc3ncc(N[C@@H]4CCCC(F)(F)[C@@H]4N)nc23)c(C(F)F)n1` [Example 39, 2-{[(1R,2R)-2-amino-3,3-difluorocyclohexyl]amino}-N-[3-(difluoromethyl)-1-methyl-1H-pyrazol-4-yl]thieno[2,3-b] pyrazine-7-carboxamide], the IC50 worked out at 32 nM.
As to `Cn1cc(NC(=O)c2csc3ncc(N4C[C@@H]5CC[C@H]4CN5)nc23)c(C#N)n1` (single isomer, unassigned) [Example 26, N-(3-cyano-1-methyl-1H-pyrazol-4-yl)-2-[(1S,4S)- or (1R,4R)-2,5-diazabicyclo[2.2.2]oct-2-yl]thieno[2,3-b] pyrazine-7-carboxamide trifluoroacetate], inhibition was half-maximal at 46 nM (IC50).
The result for `Cn1cc(NC(=O)c2csc3ncc(N4C[C@H]5CC[C@@H]4CN5)nc23)c(C(F)F)n1` (single isomer, unassigned) [Example 23, 2-[(1S,4S)- or (1R,4R)-2,5-diazabicyclo[2.2.2]oct-2-yl]-N-[3-(difluoromethyl)-1-methyl-1H-pyrazol-4-yl]thieno[2,3-b] pyrazine-7-carboxamide trifluoroacetate] reads 1 nM.
As for `O=C(Nc1ccccc1Br)c1csc2ncc(N3C[C@H]4CC[C@@H]3CN4)nc12` (single isomer, unassigned) [Example 89, N-(2-bromophenyl)-2-[(1S,4S)- or (1R,4R)-2,5-diazabicyclo-[2.2.2]oct-2-yl]thieno[2,3-b]-pyrazine-7-carboxamide trifluoroacetate], the IC50 was 612 nM.
In turn, `Cn1cc(NC(=O)c2csc3ncc(N[C@@H]4CCCC(F)(F)[C@@H]4N)nc23)c(Cl)n1` [Example 43, 2-{[(1R,2R)-2-amino-3,3-difluorocyclohexyl]amino}-N-(3-chloro-1-methyl-1H-pyrazol-4-yl)thieno[2,3-b] pyrazine-7-carboxamide trifluoroacetate] registered an IC50 of 64 nM.
The molecule `Cn1cc(NC(=O)c2csc3ncc(N4C5CCC4CNC5)nc23)c(C(F)F)n1` [Example 44, 2-(3,8-diazabicyclo[3.2.1]oct-8-yl)-N-[3-(difluoromethyl)-1-methyl-1H-pyrazol-4-yl]thieno[2,3-b] pyrazine-7-carboxamide trifluoroacetate] had an IC50 of 0.5 nM. This IC50 lies about 130-fold lower than the previous one.
Molecule `N[C@@H]1[C@H](Nc2cnc3scc(C(=O)Nc4ccccc4Cl)c3n2)CCCC1(F)F` [Example 101, 2-{[(1R,2R)-2-amino-3,3-difluorocyclohexyl]-amino}-N-(2-chlorophenyl)-thieno[2,3-b]-pyrazine-7-carboxamide trifluoroacetate] yielded an IC50 of 545 nM.
The result for `N[C@@H]1[C@H](Nc2cnc3scc(C(=O)Nc4cscc4Cl)c3n2)CCCC1(F)F` [Example 111, 2-{[(1R,2R)-2-amino-3,3-difluorocyclohexyl]-amino}-N-(4-chlorothiophen-3-yl)thieno[2,3-b]-pyrazine-7-carboxamide trifluoroacetate] reads 645 nM; that for `N[C@H]1CCCC[C@H]1Nc1cnc2scc(C(=O)Nc3cscc3C(F)F)c2n1` [Example 50, 2-{[(1R,2S)-2-aminocyclohexyl]amino}-N-(4-(difluoromethyl)thiophen-3-yl] thieno[2,3-b] pyrazine-7-carboxamide trifluoroacetate], 0.7 nM.
`Cn1cc(NC(=O)c2csc3ncc(N[C@@H]4CCCNC4)nc23)c(C(F)F)n1` [Example 32, N-[3-(difluoromethyl)-1-methyl-1H-pyrazol-4-yl]-2-[(3R)-piperidin-3-ylamino]thieno [2,3-b]pyrazine-7-carboxamide] yielded an IC50 of 0.4 nM.
With `Cn1cc(NC(=O)c2csc3ncc(N[C@@H]4CCCC[C@@H]4N)nc23)c(Br)n1` [Example 30, 2-{[(1R,2S)-2-aminocyclohexyl]amino}-N-(3-bromo-1-methyl-1H-pyrazol-4-yl)thieno[2,3-b] pyrazine-7-carboxamide trifluoroacetate], the midpoint of inhibition, the IC50, lay at 0.6 nM.
For `O=C(Nc1cscc1Cl)c1csc2ncc(N3C[C@H]4CC[C@@H]3CN4)nc12` (single isomer, unassigned) [Example 109, N-(4-chlorothiophen-3-yl)-2-[(1S,4S)- or (1R,4R)-2,5-diazabicyclo-[2.2.2]oct-2-yl]-thieno[2,3-b]-pyrazine-7-carboxamide trifluoroacetate], half-maximal inhibition (IC50) required 104 nM.
The result for `O=C(Nc1cscc1C(F)F)c1csc2ncc(N3C[C@H]4CC[C@@H]3CN4)nc12` (single isomer, unassigned) [Example 59, 2-[(1S,4S)- or (1R,4R)-2,5-diazabicyclo [2.2.2]oct-2-yl]-N-[4-(difluoromethyl)thiophen-3-yl] thieno[2,3-b] pyrazine-7-carboxamide trifluoroacetate] reads 21 nM; that for `N[C@H]1CCCC[C@H]1Nc1cnc2scc(C(=O)Nc3ccccc3Br)c2n1` [Example 87, 2-{[(1R,2S)-2-aminocyclohexyl]-amino}-N-(2-bromophenyl)-thieno[2,3-b]-pyrazine-7-carboxamide trifluoroacetate], 2 nM.
The result for `N[C@H]1CCCC[C@H]1Nc1cnc2scc(C(=O)Nc3ccccc3C(F)F)c2n1` [Example 102, 2-{[(1R,2S)-2-aminocyclohexyl]-amino}-N-[2-(difluoromethyl)phenyl]thieno-[2,3-b]-pyrazine-7-carboxamide trifluoroacetate] reads 25 nM.
The result for `N#Cc1ccccc1NC(=O)c1csc2ncc(N3C[C@@H]4CC[C@H]3CN4)nc12` (single isomer, unassigned) [Example 97, N-(2-cyanophenyl)-2-[(1S,4S)- or (1R,4R)-2,5-diazabicyclo-[2.2.2]oct-2-yl]thieno[2,3-b]-pyrazine-7-carboxamide trifluoroacetate] reads 173 nM.
For `O=C(Nc1cscc1Br)c1csc2ncc(N3C[C@H]4CC[C@@H]3CN4)nc12` (single isomer, unassigned) [Example 49, N-(4-bromothiophen-3-yl)-2-[(1S,4S)- or (1R,4R)-2,5-diazabicyclo[2.2.2]oct-2-yl]thieno[2,3-b] pyrazine-7-carboxamide trifluoroacetate], inhibition was half-maximal at 213 nM (IC50).
The result for `O=C(Nc1cscc1Br)c1csc2ncc(N3C[C@@H]4CC[C@H]3CN4)nc12` (single isomer, unassigned) [Example 46, N-(4-bromothiophen-3-yl)-2-[(1S,4S)- or (1R,4R)-2,5-diazabicyclo[2.2.2]oct-2-yl]thieno[2,3-b] pyrazine-7-carboxamide] reads 812 nM.
